Experimental findings from EP0038046A2, “Pharmaceutical amides, and preparation, formulations and use thereof” (THE WELLCOME FOUNDATION LIMITED, priority 1980, dated 1981) are described below.

The target of one assay is T1, enkephalinase Al (Rattus norvegicus, UniProt P07861).
T1 construct: the solubilised enzymes contained in the supernatant separated by DEAE- cellulose column chromatography; Enkephalinase Al was further purified by Sephacryl S.300 chromatography; from tissue; host or cells: rat striatum (Triton X-100 solubilised membrane pellet, DEAE-cellulose and Sephacryl S.300 chromatography)
T1 sequence (P07861 1-750): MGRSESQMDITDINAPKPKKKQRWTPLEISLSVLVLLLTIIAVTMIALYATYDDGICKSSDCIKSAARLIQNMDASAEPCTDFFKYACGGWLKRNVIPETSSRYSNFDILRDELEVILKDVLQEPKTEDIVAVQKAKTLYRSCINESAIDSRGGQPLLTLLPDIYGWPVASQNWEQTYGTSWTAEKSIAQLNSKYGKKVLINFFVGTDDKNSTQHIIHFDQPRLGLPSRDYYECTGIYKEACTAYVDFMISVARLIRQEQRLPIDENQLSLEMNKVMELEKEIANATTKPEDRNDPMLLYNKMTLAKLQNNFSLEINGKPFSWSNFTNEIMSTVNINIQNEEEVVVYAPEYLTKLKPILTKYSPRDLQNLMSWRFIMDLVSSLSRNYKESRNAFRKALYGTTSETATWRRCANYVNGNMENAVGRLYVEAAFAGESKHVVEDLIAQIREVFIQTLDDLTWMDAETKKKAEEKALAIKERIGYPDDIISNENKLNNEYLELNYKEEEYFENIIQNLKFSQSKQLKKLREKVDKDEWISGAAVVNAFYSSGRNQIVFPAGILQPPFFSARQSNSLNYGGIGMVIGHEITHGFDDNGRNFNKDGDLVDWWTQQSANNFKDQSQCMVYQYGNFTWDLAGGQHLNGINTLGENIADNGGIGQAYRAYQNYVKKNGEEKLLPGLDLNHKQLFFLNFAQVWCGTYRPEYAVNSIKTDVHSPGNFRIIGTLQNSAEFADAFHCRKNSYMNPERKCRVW
The assay can be described thus: Enkephalinase-inhibiting activity, method A (purified enkephalinase A1, 3H-leucine enkephalin hydrolysis to 3H-TGG, TLC separation). It counts as biochemical, Rats. Particulars: leucine enkephalin 5 x 10^-5M, 30°C, IC50 determined graphically, read-out: Approx IC50.

Another assay has as its system mice. The assay can be described thus: Antinociceptive activity, acetic acid writhing assay (modified Siegmund et al.). It is filed as in vivo. How it is done:
The antinociceptive activity of compound 1 was tested in vivo in mice using the following method:-
A modification of the writhing assay of Siegmund et al (Proc. Soc. exp. Biol. Med., 1957, 95: 727-731) was used. Compound 1 dissolved in saline, or saline alone, was administered intracerebroventricularly (i.c.v.) to groups of 5 mice at the doses shown below.-1 hour or 2 hours later, the mice were injected i.p. with the nonciceptive stimulus, i.e. 0.6% (v/v) aqueous acetic acid. […] An antinociceptive compound will reduce the number of writhes and this may be expressed as a percentage inhibition: [formula]

Another assay deals with T2, enkephalinase (Rattus norvegicus, UniProt P07861).
T2 construct: from tissue; host or cells: rat striatum, crude washed membrane pellet (47,000 g)
T2 sequence (P07861 1-750): T1 sequence (P07861 1-750)
The assay can be described thus: Enkephalinase-inhibiting activity, method B (striatal membrane homogenate, 3H-leucine enkephalin hydrolysis to 3H-TGG). It counts as biochemical, rats. Particulars: method B (figures marked with an asterisk), 3H-leucine enkephalin 3 x 10^-8M, 22°C, only approximate due to catabolism of 3H-TGG by aminopeptidase(s), read-out: Approx IC50. How it is done: B) The following method is-a modification of the method of Malfroy et al; Nature Vol..276, 30 November 1978 pages 523 to 526. Three rats were killed by decapitation and the striata dissected out on ice. The pooled tissues were homogenised in ice-cold Tris/hydrochloric acid buffer (50 mM, pH 7.60, 10.0 ml) and centrifuged (1000 g, 10 mins). The resulting supernatant was recentrifuged (47,000 g, 20 mins) and the second supernatant discarded. The pellet was washed twice and finally resuspended in buffer as before (9.6 ml) and aliquots (1.9 ml) of this suspension incubated at 22°C. […] At the completion of incubation N hydrochloric acid (50 μl) was added, the mixture heated in a boiling water bath for 15 mins and precipitated material then removed by centrifugation (1500 g, 10 mins). Separation of • (a) unchanged ^3H-leucine enkephalin, • ([…]-OH (^3H-TGG), generated from (a) by enkephalinase, and • (c) ^3H-Tyr-OH, generated from both (a) and (b) by aminopeptidase(s) in the supernatant and the subsequent procedure was carried out as described in method A) above.

On to `CC(C)C[C@H](NC(=O)C(CC(=O)O)Cc1ccccc1)C(=O)O` (mixture of isomers) [compound 1, (2S)-2-[(2RS)-2-Benzyl-3-carboxypropanamido]-4-methylpentanoic acid], for which the IC50 at enkephalinase Al came to 17 µM. Moreover, the “% inhibition of writhes” value with mice (5 µg mouse i.c.v., 1h prior to acetic acid) is listed as “slight potentiation”; in the assay on mice (5 µg mouse i.c.v., 2h prior to acetic acid), 36%; in the assay with mice (10 µg mouse i.c.v., 1h prior to acetic acid) it was 28%; in the assay on mice (10 µg mouse i.c.v., 2h prior to acetic acid) it was 48%; in the assay on mice (20 µg mouse i.c.v., 1h prior to acetic acid), 32%; in the assay on mice (20 µg mouse i.c.v., 2h prior to acetic acid) it was 44%. In addition, the “% inhibition of writhes” value in the assay on mice (40 µg mouse i.c.v., 1h prior to acetic acid) stood at 75%; with mice (40 µg mouse i.c.v., 2h prior to acetic acid) it was 84%. Consider `CC(C)C[C@H](NC(=O)C(CS)Cc1ccccc1)C(N)=O` (mixture of isomers) [compound 9, (2S)-2-[(2RS)-2-Benzyl-3-mercaptopropanamido]-4-methylpentanamide], for which the IC50 on enkephalinase Al came to 0.33 µM. Turning to `CSCC[C@@H](NC(=O)C(CC(=O)O)Cc1ccccc1)C(=O)O` (mixture of isomers) [compound 12, (2R)-2-[(2RS)-2-Benzyl-3-carboxypropanamido]-4-(methylthio)butanoic acid], the IC50 at enkephalinase Al was determined as 19 µM. For `CSCC[C@H](NC(=O)C(CC(=O)O)Cc1ccccc1)C(=O)O` (mixture of isomers) [compound 13, (2S)-2-[(2RS)-2-Benzyl-3-carboxypropanamido]-4-(methylthio)butanoic acid], the IC50 at enkephalinase Al was 4.3 µM. Turning to `C[C@H](CS)C(=O)N1CCC[C@H]1C(=O)O` [Captopril, 1-(D-3-mercapto-2-methylpropanoyl)-L-proline (R,S), reference compound], at enkephalinase Al, the IC50 was 3000 µM.

Turning to `CC(C)C[C@H](NC(=O)[C@@H](CC(=O)O)Cc1ccccc1)C(=O)O` [compound 2, (2S)-2-[(2R)-2-benzyl-3-carboxypropanamido]-4-methylpentanoic acid], the IC50 on enkephalinase was 7.2 µM. Same read-out and setting: as for `CC(C)C[C@H](NC(=O)[C@H](CC(=O)O)Cc1ccccc1)C(=O)O` [compound 3, (2S)-2-[(2S)-2-benzyl-3-carboxypropanamido]-4-methylpentanoic acid], the figure is 4 µM. For the compound `CC(C)C[C@H](NC(=O)[C@@H](CC(=O)O)Cc1ccccc1)C(N)=O` [compound 4, (2S)-2-[(2R)-2-Eenzyl-3-carboxypropanamido]-4-methylpentanamide], the IC50 on enkephalinase Al is > 100 µM. With `CC(C)C[C@@H](NC(=O)C(CC(=O)O)Cc1ccccc1)C(=O)O` (stereo partly drawn) [compound 11, (2R)-2-[(2RS)-2-Benzyl-3-carboxypropanamido,]-4-methylpentanoic acid], the IC50 at enkephalinase Al is > 500 µM. Turning to `CC(C)C[C@H](NC(=O)C(CC(=O)O)Cc1ccc([N+](=O)[O-])cc1)C(=O)O` (stereo partly drawn) [compound 14], the IC50 at enkephalinase Al is 65 µM. Same read-out and setting: as for `CSCC[C@@H](NC(=O)C(CS)Cc1ccccc1)C(=O)O` (stereo partly drawn) [compound 15, (2R)-2-[2RS-2-Benzyl-3-mercaptopropanamido]-4-(methylthio)-butanoic acid], the figure is 0.15 µM. For “(2$)-2-[(2R)-2-Benzyl-3-carboxypropanamido]-4-methylpentanamide [compound 10]”, the IC50 at enkephalinase was > 100 µM. As for “(2S)-2-[(2RS)-3-Acetylthio-2-benzylpropanamido]-4-methylpentanoic acid, dicyclohexylamine salt [compound 6]”, the IC50 at enkephalinase Al stood at 11 µM.

As a reminder, the IC50 is the concentration at which inhibition is half-maximal.
